How the values were obtained:
HCV GT1a replicon = assay: HCV replicon assay, genotype 1a, in Huh-7 cells; type: cell-based; settings: Hepatitis C virus; Huh-7 cells stably transfected with HCV GT1a replicon, 72 hours incubation; luciferase or NEO gene qPCR readout; read-out: EC50 against HCV 1a genotype
Method: (§1) HCV Replicon System was utilized as a screening model in the present disclosure to evaluate the antivirus effects of the compounds disclosed herein against HCV. HCV Replicon assay was first described in Science, 1999, 285 (5424), 110-3. […] To determine the potential anti-HCV effects of the test compounds, luciferase assay and antibiotic Neomycin resistance gene were tested according to the method described in Science. 1999 Jul. 2; 285 (5424), 110-3 and J. Virol. 2003 March; 77 (5), 3007-19.
(§2) In a word, the compounds disclosed herein were tested by using human hepatic carcinoma cell line Huh-7 which is transfected stably with HCV GT1a, GT1b or GT2a replicon respectively, and resistant cells of Y93H, L31F, P32L or I302V and wild-type cells HCV 1b. HCV Replicon System disclosed herein contains G418 resistance gene NEO and Luciferase Reporter Gene, and the level of HCV replication in host cells is detected and characterized by the expression level of the NEO gene or Luciferase Reporter Gene, so the effects of the compounds herein inhibit HCV replication can be evaluated in this system. In this article, a real-time quantitative polymerase chain reaction (qPCR) method was used to detect NEO gene expression level, and chemiluminescence method was used to test Luciferase Reporter Gene expression level.
(§3) The Huh-7 cells transfected with HCV replicons system were seeded into 96-well plates (8,000 cells in 125 μL/well) respectively; each test compound was diluted to desired concentration using 5-fold serial dilutions protocol, 10 doses in duplicate (initial concentration for 10 nM) and added to wells with POD™ 810 Plate Assembler. The plates were incubated in a CO2 incubator for 72 hours; after that, 40 μL of Luciferase assay substrate (Promega Bright-Glo) was added to each well, and detected by a chemiluminescence detection system (Topcount Microplate Scintillation and Luminescence Counter) 5 minutes later; the EC50 (half-maximal effective concentration, concentration for 50% of maximal effect) values of test compounds were analyzed by GraphPad Prism software. In this paper, experiments were repeated twice and set the wells without compounds as negative control.
as §3, with “hours;” for “hours; after that, 40 μL of Luciferase assay substrate (Promega Bright-Glo) was added to each well,”, “the expression level of the NEO gene expression with real-time quantitative PCR” for “by a chemiluminescence detection system (Topcount Microplate Scintillation and Luminescence Counter) 5 minutes”, “software, respectively.” for “software.”

HCV GT1b replicon = assay: HCV replicon assay, genotype 1b, in Huh-7 cells; type: cell-based; settings: Hepatitis C virus; Huh-7 cells stably transfected with HCV GT1b replicon, 72 hours incubation; luciferase or NEO gene qPCR readout; read-out: EC50 against HCV 1b genotype
Method: as §1, §2, §3
as §3, with “hours;” for “hours; after that, 40 μL of Luciferase assay substrate (Promega Bright-Glo) was added to each well,”, “the expression level of the NEO gene expression with real-time quantitative PCR” for “by a chemiluminescence detection system (Topcount Microplate Scintillation and Luminescence Counter) 5 minutes”, “software, respectively.” for “software.”

Row | Compound | EC50 (HCV GT1a replicon) | EC50 (HCV GT1b replicon)
1 | CC[C@H]1CC[C@@H](c2nc3ccc(-c4ccc(-c5ccc(-c6cnc([C@@H]7C[C@H](C)CN7C(=O)[C@@H](NC(=O)OC)C(C)C)[nH]6)cc5)c5c4C4CCC5C4)cc3[nH]2)N1C(=O)[C@@H](NC(=O)OC)C(C)C (stereo partly shown) [Example 8] | 63 pM | 9 pM
2 | CCC(C)[C@H](NC(=O)OC)C(=O)N1C[C@@H](CC)C[C@H]1c1ncc(-c2ccc(-c3ccc(-c4ccc5nc([C@@H]6CC[C@H](C)N6C(=O)[C@@H](NC(=O)OC)C(C)C)[nH]c5c4)c4c3C3CCC4C3)cc2)[nH]1 (stereo partly shown) [Example 10] | 57 pM | 9 pM
3 | COC(=O)N[C@H](C(=O)N1C[C@@H](C)CC1c1ncc(-c2ccc(-c3ccc(-c4ccc5nc([C@@H]6CC[C@H](C)N6C(=O)[C@@H](NC(=O)OC)C(C)C)[nH]c5c4)c4c3C3CCC4C3)cc2)[nH]1)C(C)C (stereo partly shown) [Example 4] | 131 pM | 5 pM
4 | COC(=O)N[C@H](C(=O)N1C(c2ncc(-c3ccc(-c4ccc(-c5cnc([C@@H]6CC[C@H](C)N6C(=O)[C@@H](NC(=O)OC)C(C)C)[nH]5)c5c4C4CCC5C4)cc3)[nH]2)CC[C@@H]1C)C(C)C (stereo partly shown) [Example 1] | 19 pM | 4 pM
5 | COC(=O)N[C@H](C(=O)N1C[C@@H](C)C[C@H]1c1ncc(-c2ccc(-c3ccc(-c4ccc5nc([C@@H]6CC[C@H](C)N6C(=O)[C@H](NC(=O)OC)c6ccccc6)[nH]c5c4)c4c3C3CCC4C3)cc2)[nH]1)C(C)C (stereo partly shown) [Example 6] | 32 pM | 6 pM
6 | COC(=O)N[C@H](C(=O)N1[C@@H](C)CC[C@H]1c1nc2ccc(-c3ccc(-c4ccc(-c5cnc([C@@H]6C[C@@H]7CCC[C@@H]7N6C(=O)[C@@H](NC(=O)OC)[C@@H](C)OC)[nH]5)cc4)c4c3C3CCC4C3)cc2[nH]1)C(C)C (stereo partly shown) [Example 11] | 235 pM | 12 pM
7 | COC(=O)N[C@H](C(=O)N1C[C@@H](C)C[C@H]1c1nc2ccc(-c3ccc(-c4ccc(-c5cnc(C6CC[C@H](C)N6C(=O)[C@@H](NC(=O)OC)C(C)C)[nH]5)cc4)c4c3C3CCC4C3)cc2[nH]1)C(C)C (stereo partly shown) [Example 2] | 4 pM | 4 pM
8 | COC(=O)N[C@H](C(=O)N1C(c2ncc(-c3ccc(-c4ccc(-c5ccc6nc([C@@H]7CC[C@H](C)N7C(=O)[C@@H](NC(=O)OC)C(C)C)[nH]c6c5)c5c4C4CCC5C4)cc3)[nH]2)CC[C@@H]1C)C(C)C (stereo partly shown) [Example 3] | 8 pM | 5 pM
9 | COC[C@H]1C[C@@H](c2ncc(-c3ccc(-c4ccc(-c5ccc6nc([C@@H]7CC[C@H](C)N7C(=O)[C@@H](NC(=O)OC)C(C)C)[nH]c6c5)c5c4C4CCC5C4)cc3)[nH]2)N(C(=O)[C@@H](NC(=O)OC)C(C)C)C1 (stereo partly shown) [Example 9] | 123 pM | 8 pM
10 | COC(=O)N[C@H](C(=O)N1C[C@@H](C)C[C@H]1c1ncc(-c2ccc(-c3ccc(-c4ccc5nc([C@@H]6CC[C@H](C)N6C(=O)[C@@H](NC(=O)OC)C6CCOCC6)[nH]c5c4)c4c3C3CCC4C3)cc2)[nH]1)C(C)C (stereo partly shown) [Example 7] | 87 pM | 5 pM
11 | COC(=O)NC(C(=O)N1C[C@@H](C)CC1c1ncc(-c2ccc(-c3ccc(-c4ccc5nc([C@@H]6CC[C@H](C)N6C(=O)[C@@H](NC(=O)OC)C(C)C)[nH]c5c4)c4c3C3CCC4C3)cc2)[nH]1)c1ccccc1 (stereo partly shown) [Example 5] | 98 pM | 7 pM
